Experimental data taken from patent publication US20230049917A1, “Pharmaceutical Composition of CASR Modulators and Methods and Uses Thereof” (Lupin Limited, priority 2019, published 2023).

Key:
[1] = Phase 2 study: safety assessments (adverse events); assay type: in vivo, human; details: for patients who discontinued the study due to adverse drug reactions: Main Study
Method: For safety assessments, safety was assessed through the summary of adverse events (AE), physical examinations and electrocardiogram (ECG) measurements, vital signs (e.g., blood pressure, pulse rate, respiratory rate and body temperature), body weight and laboratory data (e.g., haemtaology, biochemistry and urinalysis). All AEs (both serious and non-serious) were derived from spontaneous, unsolicited reports of patients, by observation and by routine open questions. The AE reporting extended from date of informed consent until completion of the final visit. Any ongoing AE at EOS visit was followed until the outcome was evident and resolved, clinically stabilized or a plausible explanation was found. Pre-existing diseases including deranged laboratory values (before participating in the study) were not considered AEs, unless the disease worsened during the study period. Signs and symptoms clearly associated with the disease under study (including symptoms of disease progression) were reported as AEs if they were newly emergent, or were determined as severe or worsening, or if deterioration of disease-related signs and symptoms to be caused directly by the study drug. Physical examination, vital signs (measured in a sitting position after resting for at least 3 minutes), ECG (recorded by qualified personnel after the patient had been resting in the supine position for at least 3 minutes) and clinical laboratory examinations were done as part of safety assessments. Abnormal laboratory values/ECGs/vital signs/physical examination were reported as AEs only if the abnormality was clinically relevant or significant or believed that the abnormality must be reported as an AE. Any dose (and associated symptoms) given to the patient that exceeded the dose prescribed to the patient, at a minimum, was recorded as a non-serious AE in the patient file and CRF/electronic CRF. Any case of overdose leading to an AE or SAE had to be reported to medical monitor according to reporting requirements. In case of an accidental overdose, the patient had to be monitored by for any adverse clinical events, as deemed necessary.

[2] = target: human Ether-a-go-go-related gene (hERG) (Homo sapiens, UniProt Q12809); test: hERG liability
human Ether-a-go-go-related gene (hERG), sequence (Q12809 whole entry): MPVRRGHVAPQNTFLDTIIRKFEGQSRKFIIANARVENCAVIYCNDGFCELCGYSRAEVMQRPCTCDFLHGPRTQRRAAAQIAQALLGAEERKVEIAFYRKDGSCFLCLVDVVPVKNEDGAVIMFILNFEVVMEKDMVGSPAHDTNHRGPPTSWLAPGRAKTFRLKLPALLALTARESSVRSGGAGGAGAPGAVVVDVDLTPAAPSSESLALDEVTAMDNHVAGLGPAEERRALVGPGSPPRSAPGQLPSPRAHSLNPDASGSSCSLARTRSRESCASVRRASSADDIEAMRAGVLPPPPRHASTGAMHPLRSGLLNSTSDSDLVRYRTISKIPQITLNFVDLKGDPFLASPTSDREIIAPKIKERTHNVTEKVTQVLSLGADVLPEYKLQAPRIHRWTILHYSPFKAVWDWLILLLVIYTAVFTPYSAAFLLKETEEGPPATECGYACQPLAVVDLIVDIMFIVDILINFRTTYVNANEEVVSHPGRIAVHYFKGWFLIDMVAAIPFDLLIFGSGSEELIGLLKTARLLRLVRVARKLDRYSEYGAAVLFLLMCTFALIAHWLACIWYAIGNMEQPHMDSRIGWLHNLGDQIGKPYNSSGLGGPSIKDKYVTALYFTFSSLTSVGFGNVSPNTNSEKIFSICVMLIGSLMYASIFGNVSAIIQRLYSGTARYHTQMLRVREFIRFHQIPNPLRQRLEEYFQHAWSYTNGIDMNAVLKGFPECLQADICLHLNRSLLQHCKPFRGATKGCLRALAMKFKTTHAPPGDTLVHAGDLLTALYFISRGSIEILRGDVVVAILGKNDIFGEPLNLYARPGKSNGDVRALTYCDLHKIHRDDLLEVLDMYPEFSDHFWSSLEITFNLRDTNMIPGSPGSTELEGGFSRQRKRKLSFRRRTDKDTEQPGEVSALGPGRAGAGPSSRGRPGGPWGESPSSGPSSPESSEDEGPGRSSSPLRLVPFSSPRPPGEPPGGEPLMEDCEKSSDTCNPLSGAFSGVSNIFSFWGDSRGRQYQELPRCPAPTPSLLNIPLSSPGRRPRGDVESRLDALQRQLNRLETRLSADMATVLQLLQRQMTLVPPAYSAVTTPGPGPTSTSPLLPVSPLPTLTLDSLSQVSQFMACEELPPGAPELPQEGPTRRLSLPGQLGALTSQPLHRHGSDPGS

[3] = patients not on dialysis, 5 mg BID (N = 16)
[4] = patients not on dialysis, 10 mg QD (N = 37)
[5] = patients not on dialysis, Total in Compound 3 Group (N = 71)
[6] = patients on dialysis, 10 mg QD (N = 34)
[7] = patients on dialysis, 20 mg BID (N = 19)
[8] = patients on dialysis, 25 mg QD (N = 35)
[9] = patients on dialysis, Total in Compound 3 Group (N = 88)

For `Cc1ccc([C@@H]2C[C@H](CN[C@H](C)c3cccc4ccccc34)Oc3ccccc32)cc1C(=O)O.Cl` [Compound 3, 2-methyl-5-((2R,4S)-2-((((R)-1-(naphthalen-1-yl)ethyl)amino)methyl)chroman-4-yl)benzoic acid hydrochloride], the “patients with hypocalcaemia considered by the investigator to be related to the study drug” value ([1]; 1 patient each in 10 mg QD, 25 mg QD and 20 mg BID arms) was 3 patients, the symptomatic hypocalcemic effect ([1]; CKD patients, dose range 5 mg to 50 mg) was “no symptomatic hypocalcemic effect” and the “patients who discontinued the study due to adverse drug reactions” value ([1]; not on dialysis group) was “None”. The “patients who discontinued the study due to adverse drug reactions” value ([1]; on dialysis group) was “None”, the “adverse events of hyperphosphatemia” value ([1]; Phase 2 study, all patients) was “no adverse events of hyperphosphatemia” and the “patients experiencing adverse events of hypocalcaemia or hyperphosphatemia” value ([1]; patients not on dialysis) was “none”. The “Adverse event incidence: Diarrhea” value [1, 3] was 0%, the “Adverse event incidence: Nausea” value [1, 3] was 0% and the “Adverse event incidence: Vomiting” value [1, 3] was 0%. For the same compound, the “Adverse event incidence: Diarrhea” value [1, 4] was 2.7%, the “Adverse event incidence: Nausea” value [1, 4] was 0% and the “Adverse event incidence: Vomiting” value [1, 4] was 0%. For the same compound, the “Adverse event incidence: Diarrhea” value [1, 5] was 2.7%, the “Adverse event incidence: Nausea” value [1, 5] was 0% and the “Adverse event incidence: Vomiting” value [1, 5] was 0%. The “Adverse event incidence: Diarrhea” value [1, 6] was 0%, the “Adverse event incidence: Nausea” value [1, 6] was 0% and the “Adverse event incidence: Vomiting” value [1, 6] was 0%. The “Adverse event incidence: Diarrhea” value [1, 7] was 0%, the “Adverse event incidence: Nausea” value [1, 7] was 5.3% and the “Adverse event incidence: Vomiting” value [1, 7] was 0%. For the same compound, the “Adverse event incidence: Diarrhea” value [1, 8] was 0%, the “Adverse event incidence: Nausea” value [1, 8] was 0% and the “Adverse event incidence: Vomiting” value [1, 8] was 0%. The “Adverse event incidence: Diarrhea” value [1, 9] was 0%, the “Adverse event incidence: Nausea” value [1, 9] was 5.3% and the “Adverse event incidence: Vomiting” value [1, 9] was 0%. For the same compound, the hERG liabilities [2] was “devoid”.
